In general, melting point refers to the temperature of the solid-liquid transition.

As to `CN(C(=O)c1ccc(CS(=O)(=O)Cn2cnc3ccccc32)cc1)C1CCCCC1`, the melting point was in the range of 142 to 143 °C.

On to `CCOC(=O)C=CC1C(C(=O)O)C1(C)C` (centres undefined), for which the melting point came out at 96 °C.

On to `NCC(=O)N(C(=O)C(O)c1ccccc1)c1ccccc1` (centres undefined), for which the melting point fell in the range of 148 to 151 °C.

With `CSCCCn1cc(C(Cc2ccccc2Br)=NO)c2ccc(Cl)c(Cl)c21`, the melting point was in the range of 139 to 142 °C.

The compound `O=C1Nc2ccc([N+](=O)[O-])cc2C12OCCCO2` gave a melting point of 155 to 168 °C.

On to `Clc1cccc(-c2nc(-c3ccccn3)no2)c1Cl`, for which the melting point lay in the range of 128 to 133 °C.

As for `CCN(CC)c1ccc(-c2cn(-c3ccc(C4=C(C#N)C(=C(C#N)C#N)OC4(C)C)cc3)nn2)cc1`, the melting point turned out to be 275 °C.

`Cc1cc(Br)c2c(c1)C(=O)C(=O)N2CCN(C(C)C)C(C)C` returned a melting point of 94 to 97 °C.

On to `O=S(=O)(N[C@H](CO)C(CC(F)(F)F)CC(F)(F)F)c1ccc(Cl)cc1`, for which the melting point lay within 186 to 187 °C.

Take `Cc1cc2c(N)c(C(=O)c3cc(F)ccc3F)sc2nc1C`: the melting point stood at 188 °C.

In turn, `O=c1[nH]c2cc(Cl)cc(Cl)c2c(=O)n1Cc1cccc(Br)c1` came in with a melting point of 161 to 165 °C.

In the case of `O=C(O)CCCSc1cccc(Br)n1`, the melting point lay within 72 to 74 °C.

With `COc1ccc(-n2nc(C(F)(F)F)cc2OCN2C(=O)c3c(C(C)C)cc(OC)cc3S2(=O)=O)cc1`, the melting point fell in the range of 111 to 113 °C.

Compound `CC(=O)OCc1ccc(-c2nc3c(s2)C(=O)c2ccccc2C3=O)o1` gave a melting point of 204 °C.

For the compound `O=C1c2ccccc2C(=O)N1CCCCOc1ccccn1`, the melting point was in the range of 77 to 78 °C.

Compound `COc1ccc(C2(O)CCN(c3ccc(OC)nc3-c3ccc(OC(F)(F)F)cc3)CC2)cc1` registered a melting point of 100 to 112 °C.

The compound `CCC(O)c1ccc(Cl)c2nc3n(c12)CCCN3c1c(Cl)cc(OC)cc1Cl` (centres undefined) came in with a melting point of 206 to 208 °C.

Compound `CCCCCCCCCCCCCCOc1ccc([N+](=O)[O-])cc1` yielded a melting point of 57 to 60 °C.

As for `CCN(CC)c1nc(C(F)(F)C(F)(F)F)nn1-c1c(Cl)cc(Cl)cc1Cl`, the melting point fell in the range of 66 to 70 °C.

Consider `CCN(CC)C1CCN(c2ccc(-c3[nH]nc4c3C(=O)c3c(NC(=O)NN5CCOCC5)cccc3-4)cc2)CC1`, for which the melting point was found to be 251 °C.

`CC(=S)NCC1CC(c2ccc(N3CCSCC3)c(F)c2)=NO1` (centres undefined): the melting point lay in the range of 219 to 220 °C.

As for `COc1ccc(Br)cc1OCc1ccccc1`, the melting point lay within 70 to 71 °C.

As to `CCCOC(=O)c1c(C)nc2cc(OC)c(OC)cc2c1-c1ccc(OC)c(OC)c1`, the melting point is 153 to 155 °C.

With `Cc1cc(-c2cc3c(cc2C)OC(C)(C)C=C3)ccn1`, the melting point lay in the range of 212 to 214 °C.

As to `COc1ccc(Cn2c(=O)c3ccccc3n(CCCCCCl)c2=O)cc1`, the melting point fell in the range of 110 to 111 °C.

As for `CCCC[C@H](NC(=O)[C@H](CC(C)C)NC(=O)OC(C)(C)C)C(=O)CCCc1cccs1`, the melting point fell in the range of 70 to 72 °C.

In turn, `COC(=O)c1cc(NN=C(c2ccccc2)c2ccccc2)c(C#N)s1` had a melting point of 178 to 180 °C.

Compound `CS(C)=NS(=O)(=O)c1ccc(N2CC(CO)OC2=O)cc1` (centres undefined) showed a melting point of 162 to 164 °C.

On to `COc1cc(C(C)C)c2c(c1)S(=O)(=O)N(COC(=O)C1CCC(=O)N1)C2=O` (centres undefined), for which the melting point lay within 159 to 160 °C.

In the case of `CC(C)COC(=O)N1CCN(c2c(C(=O)N3CCN(C)CC3)c3ccccc3n2-c2ccccc2)CC1`, the melting point fell in the range of 132 to 133 °C.

Regarding `CN(C)c1nc(N)nc2c1ncn2C1C=CC(CO)C1` (centres undefined), the melting point lay within 173 to 174 °C.

`O=C(O)c1cc([N+](=O)[O-])cc(S(F)(F)(F)(F)F)c1` registered a melting point of 140 °C.

Turning to `CC(C)(C)C1=CC(=CC(=O)O)C=C(C(C)(C)C)C1=O`, the melting point lay in the range of 148 to 150 °C.

Take `CC1(C)C(Cl)(Cl)C1(Cl)C(=O)O` (centres undefined): the melting point lay in the range of 148 to 150 °C.

As for `CCOC(=O)C(=CNc1cc(C)nc(-c2ccncc2)n1)C(=O)OCC`, the melting point is 169 to 171 °C.

In turn, `CC12CC3OC3CC1CCC1C2CCC2(C)C(O)C(N3CCC(O)CC3)CC12` (centres undefined) had a melting point of 204 to 206 °C.

Turning to `O=S(=O)(c1ccccc1)N1CCC(C(=Nc2ccc(F)cc2)c2ccc(F)cc2)CC1`, the melting point fell in the range of 123 to 124 °C.

With `OCCc1ccc(Oc2cc(C(F)(F)F)ccn2)cc1`, the melting point lay in the range of 78 to 79 °C.

`CCCn1c(=O)c2c(NC)n[nH]c2n(Cc2cccc(Cl)c2)c1=O`: the melting point was 263 to 265 °C.

On to `Cc1ccc2c(c1)C(C1=CCN(C(C)O)CC1)CC2(O)c1ccc(F)cc1` (centres undefined), for which the melting point lay within 177 to 178 °C.

`Cn1c(C(F)(F)F)cc(=O)n(-c2cc([N+](=O)[O-])c(Br)cc2F)c1=O` came in with a melting point of 124 to 125 °C.

As for `CC(C)C(=O)NCC(=NNC(N)=S)c1ccccc1`, the melting point was in the range of 183 to 185 °C.

`COC(=O)CCCC(=O)Nc1ccc(-c2ccc(C#N)cc2)cc1` came in with a melting point of 171 to 173 °C.

The compound `O=C1N[C@H](CCl)[C@@H]1N1C(=O)c2ccccc2C1=O` (relative stereo) came in with a melting point of 172 °C.

In turn, `COc1nc(OC)c(SC)c(OC)n1` yielded a melting point of 90.5 to 91 °C.

The compound `CC(O)C1CCC2C3CCC4=CC(O)CCC4(C)C3CCC12C` (centres undefined) gave a melting point of 169 to 170 °C.

The compound `Cc1cccc(-c2cn(C)cc(-c3cccc(C)c3)c2=O)c1` yielded a melting point of 148 to 150 °C.

In turn, `CN(c1cccc2cc(-c3ncc(CCC(N)=O)s3)[nH]c12)S(=O)(=O)c1cccs1` registered a melting point of 246 to 247 °C.

Compound `O=C(NCC1CCC(CNS(=O)(=O)c2ccc3ccccc3c2)CC1)C1CCc2ccccc2C1` (centres undefined) had a melting point of 225 to 226 °C.

On to `COC(=O)c1c(C(=O)O)n(-c2ccc(OC(C)C)cc2)c2ccc(Oc3ccc(C(F)(F)F)cc3)cc12`, for which the melting point came to 191 °C.

As to `CC(C(=O)c1ccc(Cl)cc1)n1ncn(-c2ccc(N3CCN(Cc4ccccc4)CC3)cc2)c1=O` (centres undefined), the melting point turned out to be 164 °C.

Consider `Cc1c(-c2ccc(OCC3CC3)cc2)nc2n(Cc3c(F)cccc3F)cc(-c3ccccc3)c(=O)n12`, for which the melting point lay in the range of 210 to 214 °C.

In the case of `COCCOc1nc(Cl)ncc1Cc1ccc(C)nc1`, the melting point was in the range of 50 to 52 °C.

Turning to `O=C(O)c1ccc(C(F)F)s1`, the melting point fell in the range of 111 to 112 °C.

In turn, `CCCCN(CCCC)CCCOc1ccc(-c2cn3cccc(C)c3n2)cc1C` yielded a melting point of 63 to 66 °C.

The compound `CCCCc1nc2cccc(C(=O)O)c2n1Cc1ccc(-n2cccc2-c2nnn[nH]2)cc1` displayed a melting point of 165 to 167 °C.

On to `N#CN1CCN2c3ccccc3Cc3ccccc3C2C1` (centres undefined), for which the melting point lay in the range of 164 to 166 °C.

On to `CCN1CCN(c2nc(-c3ccc(OCCO)cc3OC)cc3ccccc23)CC1`, for which the melting point was 140 to 142 °C.

`O=C(Nc1cccc(O)c1)c1ccc(CSc2ccc(O)cc2)cc1`: the melting point was 218 to 222 °C.

In turn, `Cc1cc(OC(=O)c2ccccc2)ccc1OCc1ccccc1` came in with a melting point of 118 to 119 °C.

`Cc1ccc(S(=O)(=O)OCC2Cc3ccc(O)cc3O2)cc1` (centres undefined) displayed a melting point of 107 to 110 °C.

In turn, `C[C@@H](C(N)=O)c1ccc(NS(=O)(=O)c2ccc(C(F)(F)F)cc2)cc1` had a melting point of 178 to 180 °C.

`CCN1CC(Cc2ccc(C(=O)O)cc2OC)c2cc(NC(=O)CC3CCCC3)ccc21` (centres undefined): the melting point lay within 183 to 186 °C.

In turn, `CCOC(=O)c1cc2c(O)nncc2nc1NC(C)C` yielded a melting point of 219 to 220 °C.

Turning to `CN1CCN(Nc2cc(Cl)ccc2[N+](=O)[O-])CC1`, the melting point is 108 °C.

`[N-]=[N+]=NS(=O)(=O)c1cccc(C(=O)Cl)c1` yielded a melting point of 41 °C.

Regarding `CCN1CCc2c(NC(C)=O)ccc(Br)c2C1`, the melting point was in the range of 168 to 169 °C.

The compound `O=C1CCCCC1c1cnc2ccccc2c1` (centres undefined) came in with a melting point of 114 to 115 °C.

As for `CCc1cnc(CSc2cnc(NC(=O)c3ccccc3)s2)o1`, the melting point fell in the range of 122 to 123 °C.

Take `O=c1c2c(c3cccnc3n1-c1ccccc1)CCCC2`: the melting point was in the range of 160 to 162 °C.

The compound `C=CCNC(=O)C=Cc1cn(C)nc1[N+](=O)[O-]` gave a melting point of 143 to 146 °C.

Compound `COC(=O)NCCCCC(NC(=O)OC)C(=O)OC` (centres undefined) returned a melting point of 187 to 189 °C.

As for `CC(C)NC(=O)[C@@H]1CCCN1C(=O)[C@H](C)NC(=O)OCc1ccccc1`, the melting point fell in the range of 124 to 126 °C.

In the case of `N=C(N)Nc1nc(C(=O)Nc2cccc(C(=O)NC(CC(=O)O)c3ccccc3)c2)cs1` (racemic), the melting point was determined as 235 °C.

The compound `COc1ccc(CCC(=O)CCI)cc1` had a melting point of 38 to 42 °C.

In turn, `O=C1CCCC2=C1C(c1cccc([N+](=O)[O-])c1)C=C(C(F)(F)F)N2` (centres undefined) yielded a melting point of 215 to 216 °C.

`Cc1cc(O)c(C(=O)CCC(=O)O)cc1Cl`: the melting point is 181 to 182 °C.

As to `O=C(O)CCC(=O)NNc1ccnc2c(NC(=O)c3c(Cl)cccc3Cl)cccc12`, the melting point was in the range of 166 to 170 °C.

`COc1ccc(-c2ccnn2-c2ccc(N3C[C@H](CNC(C)=O)OC3=O)cc2F)cc1OC`: the melting point is 154 to 156 °C.

`NC1=NC(c2ccc(OC(F)(F)F)cc2)(c2cccc(-c3cccnc3F)c2)C2=NCCCCCN12` (centres undefined) had a melting point of 95 to 99 °C.

`Cc1c(C)c(N2CCN(c3ccc(CN(C)C)cc3)CC2)c(C)c2c1OC(C)(C)C2` displayed a melting point of 134 to 138 °C.

The compound `CCCCCCC(C(=O)N1CCCC1CC(=O)O)n1cnc2cc(-c3ccccc3-c3nn[nH]n3)ccc21` (centres undefined) gave a melting point of 122 to 125 °C.

`CCOC(=O)c1ccnc(NC(=O)CCc2ccccc2)c1` displayed a melting point of 107 to 108 °C.

Turning to `Cn1ncnc1COc1nc2c(cc1C(C)(C)C)nnn2-c1c(F)cccc1F`, the melting point was in the range of 105 to 108 °C.

With `NC(=O)[C@@H]1CCCc2cc(Sc3ccccc3)cc(F)c21`, the melting point fell in the range of 167 to 168 °C.

`NS(=O)(=O)Oc1ccc(-c2ccccc2)cc1` registered a melting point of 166 to 168 °C.

On to `CN(O)C(=O)NCCc1cc2ccccc2o1`, for which the melting point was determined as 120 °C.

As for `CCOC(=O)C(c1c(F)cc(C#N)cc1F)c1cc(C)c(C(=O)c2ccc(Cl)cc2)n1C` (centres undefined), the melting point fell in the range of 155 to 156 °C.

Compound `NS(=O)(=O)c1cc(C(=O)Nn2cnc3cc(C(F)(F)F)ccc32)ccc1Cl` came in with a melting point of 164 °C.

The values above are taken from a melting point compilation (Tetko et al.; mined from patent text by program, amines drawn as free bases though some values may be those of a salt).
